Results as given in PMC9855432, “Novel Set of Diarylmethanes to Target Colorectal Cancer: Synthesis, In Vitro and In Silico Studies” (Biomolecules, 2022).

How the values were obtained:
human CRC HCT116 cells = experiment: MTT cell viability / IC50 on HCT116 cells; format: cell-based; settings: for IC50: MTT assay, 1 to 50 µM, mean ± SEM of at least three experiments; for viability at 50 µM: HCT-116
Description: (§1) Cells were grown in DMEM medium for HT-29 cells and RPMI 1640 medium for HCT116 cells, supplemented with 10% FBS, 1% L-glutamine and 100 U/mL penicillin and 100 μg/mL streptomycin. Cultures were maintained in a humidified atmosphere containing 5% CO2 at 37 °C. Stock solutions of each compound were used at 10^−2 M in DMSO and then diluted in culture medium to obtain the appropriate final concentrations. […] L929 cell line is a non-cancer cell line derived from L-strain (L cells) and has been grown in the Peptinov laboratory for years. L929 cells are murine adherent fibroblasts from subcutaneous connective tissue (areolar and adipose tissues). Cells were grown in DMEM medium supplemented with 10% FBS, 1% L-glutamine and 100 U/mL penicillin and 100 µg/mL streptomycin and maintained in a humidified incubator at 37 °C, 5% CO2. When confluence is at 80%, cells are trypsinyzed for 3 min and diluted in fresh medium. Each batch of cells is kept for 15 passages before being discarded and a new batch thawed.
(§2) All compounds were tested on the metabolic activity of the cells using the MTT colorimetric assay. Briefly, cells were seeded in 96-well microplates at 8 × 10^3 cells/well for human CRC HT-29 cells and 5 × 10^3 cells/well for human CRC HCT116 cells and grown for 24 h in appropriate culture medium prior to exposure or not to compounds (6–27) with concentration ranges from 1 to 50 µM. After 48 h of treatment, MTT (5 g/L in Phosphate-buffered saline (PBS)) was added and incubated for another 3 h. The MTT was then removed from the wells and 100 µL/well of DMSO were added to dissolve formazan. The optical density was detected with a microplate reader (Thermoscientific, Multiskan FC) at 550 nm and cell viability was expressed as a percentage of each treatment condition compared to control cells. IC50 values were calculated for all compounds from the dose–response curve.

human CRC HT-29 cells [1] = experiment: MTT cell viability / IC50 on HT-29 cells; format: cell-based; settings: for IC50: MTT assay, 1 to 50 µM, mean ± SEM of at least three experiments; for viability at 50 µM: HT-29; for viability at 50 µM / Cell viability (%) HT-29: MTT screening, 50 µM
Description: as §1, §2

human CRC HT-29 cells [2] = experiment: DNA fragmentation, Cell Death Detection ELISA, HT-29; format: cell-based; settings: treated at IC50, n-fold compared to control
Description: Human CRC HT-29 and HCT116 cells were treated or not with the determined IC50 values of compounds (12a, 10a, 10b) for 24 and 48 h and then harvested with trypsin. Histone release from the nucleus during apoptosis was analyzed using the Cell Death Detection ELISA^PLUS as previously described. Cytosol extracts from 10^5 cells of each condition were obtained and DNA fragmentation was measured according to the manufacturer’s protocol. Results were reported as n-fold compared to control cells.

PARP = experiment: Western blot of cleaved PARP in HT-29 cells; format: cell-based, human
Description: Human CRC HT-29 and HCT116 cells were treated or not with the determined IC50 values of compounds (12a, 10a, 10b) for indicated times (6, 12, 24 and 48h) and then harvested with trypsin. For total protein extraction, collected samples of each condition were washed with PBS. Then, the total cell pool was centrifuged at 200× g for 5 min at 4 °C and homogenized in RIPA lysis buffer (50 mM HEPES, pH 7.5, 150 mM NaCl, 1% sodium deoxycholate, 1% NP-40, 0.1% Sodium Dodecyl Sulfate (SDS), […] of aprotinin) containing protease inhibitors according to the manufacturer’s instructions as previously described. Proteins (60 µg) were separated on 12.5% SDS-PAGE gels and transferred to polyvinylidene difluoride (PVDF) membranes. Membranes were probed with respective human antibodies against caspase-3, cleaved caspase-3, PARP and Akt, ERK, p38 MAP Kinases and its phosphorylated forms according to the manufacturer’s instructions. After incubation with appropriate secondary antibodies, blots were developed using the «Immobilon Western » substrate following the manufacturer’s protocol and G:BOX system (Syngene, Ozyme). Membranes were then reblotted with human anti-β-actin used as a loading control.
Cells were treated or not for 24 and 48 h, with IC50 values of compounds 10a, 10b and 12a, for human CRC HT-29 cells and compounds 10a and 12a for human CRC HCT116 cells. Total lysates were collected, and expression of apoptosis-related proteins was determined by Western blot analysis.

[3] = Homo sapiens, 50 µM, 48 h, MTT screening
[4] = concentrations up to 50 µM, 48 h

Row | Structure (SMILES) | IC50 (human CRC HCT116 cells; Homo sapiens, HCT-116, 48 h) [µM] | IC50 (human CRC HT-29 cells [1]; Homo sapiens, HT-29, 48 h) [µM] | IC50 (human CRC HCT116 cells; 48 h) [µM] | IC50 (human CRC HT-29 cells [1]; 48 h) [µM] | further results
1 | COc1ccc(C(=Cc2ccccc2)c2ccccn2)cc1 [Compound 6a, 2-(1-(4-méthoxyphenyl) -2-phenylvinyl) pyridine] | 35.6 ± 2.08 | 30.3 ± 1.78 |  |  | viability at 50 µM (human CRC HCT116 cells; [3]): < 50%; viability at 50 µM (human CRC HT-29 cells [1]; Homo sapiens, 48 h): < 50%
2 | COc1ccc(C(=Cc2ccccc2)c2ccccn2)cc1 [Compound 6b, 2-(1-(4-méthoxyphenyl) -2-phenylvinyl) pyridine] |  |  | > 50 | > 50 | 
3 | COc1ccc(C(=Cc2ccc(C)cc2)c2ccccn2)cc1 [Compound 7a, 2-(1-(4-methoxyphenyl)-2-(p-tolyl)vinyl)pyridine] | > 50 | 35 ± 1.99 |  |  | viability at 50 µM (human CRC HT-29 cells [1]; Homo sapiens, 48 h): < 50%
4 | COc1ccc(C(=Cc2ccc(C)cc2)c2ccccn2)cc1 [Compound 7b, 2-(1-(4-methoxyphenyl)-2-(p-tolyl)vinyl)pyridine] |  |  | > 50 | 36.2 ± 4.56 | Cell viability (%) HT-29 (human CRC HT-29 cells [1]; 48 h): < 50%
5 | COc1ccc(C=C(c2ccc(OC)cc2)c2ccccn2)cc1 [Compound 8a, 2-(1,2-bis(4-methoxyphenyl)vinyl)pyridine] | > 50 | 43.5 ± 4.91 |  |  | viability at 50 µM (human CRC HT-29 cells [1]; Homo sapiens, 48 h): < 50%
6 | COc1ccc(C(=Cc2ccc(C(C)C)cc2)c2ccccn2)cc1 [Compound 9a, 2-(2-(4-isopropylphenyl)-1-(4-methoxyphenyl)vinyl)pyridine] |  |  | > 50 | > 50 | 
7 | COc1ccc(C(=Cc2ccc(C(C)C)cc2)c2ccccn2)cc1 [Compound 9b, 2-(2-(4-isopropylphenyl)-1-(4-methoxyphenyl)vinyl)pyridine] | > 50 | 34.9 ± 0.78 |  |  | viability at 50 µM (human CRC HT-29 cells [1]; Homo sapiens, 48 h): < 50%
8 | COc1ccc(C(Oc2ccccc2)c2ccccn2)cc1 (centres unmarked) [Compound 17, 2-((4-methoxyphenyl)(phenoxy)methyl)pyridine] | > 50 | > 50 |  |  | 
9 | COc1ccc(C(Oc2ccc(C)cc2)c2ccccn2)cc1 (centres unmarked) [Compound 18, 2-((4-methoxyphenyl)(p-tolyloxy)methyl)pyridine] | > 50 | > 50 |  |  | 
10 | COc1ccc(OC(c2ccc(OC)cc2)c2ccccn2)cc1 (centres unmarked) [Compound 19, 2-((4-methoxyphenoxy)(4-methoxyphenyl)methyl)pyridine] | > 50 | > 50 |  |  | 
11 | COc1ccc(C(Oc2ccc(C(C)(C)C)cc2)c2ccccn2)cc1 (centres unmarked) [Compound 20, 2-((4-(tert-butyl)phenoxy)(4-methoxyphenyl)methyl)pyridine] | > 50 | > 50 |  |  | 
12 | COc1ccc(C(Oc2ccc(Cl)cc2)c2ccccn2)cc1 (centres unmarked) [Compound 21, 2-((4-chlorophenoxy)(4-methoxyphenyl)methyl)pyridine] | > 50 | > 50 |  |  | 
13 | COc1ccc(C(Oc2ccc(Br)cc2)c2ccccn2)cc1 (centres unmarked) [Compound 22, 2-((4-bromophenoxy)(4-methoxyphenyl)methyl)pyridine] | 41.5 ± 1.48 | 37.9 ± 1.87 |  |  | viability at 50 µM (human CRC HCT116 cells; [3]): < 50%; antiproliferative activity HCT116 (in words) (human CRC HCT116 cells; [4]): potential antiproliferative activity; viability at 50 µM (human CRC HT-29 cells [1]; Homo sapiens, 48 h): < 50%; antiproliferative activity HT-29 (in words) (human CRC HT-29 cells [1]; [4]): potential antiproliferative activity
14 | COc1ccc(C(Oc2ccc(F)cc2)c2ccccn2)cc1 (centres unmarked) [Compound 23, 2-((4-fluorophenoxy)(4-methoxyphenyl)methyl)pyridine] | > 50 | > 50 |  |  | 
15 | COc1ccc(C(Oc2ccc(C(F)(F)F)cc2)c2ccccn2)cc1 (centres unmarked) [Compound 24, 2-((4-methoxyphenyl)(4-(trifluoromethyl)phenoxy)methyl)pyridine] | > 50 | > 50 |  |  | 
16 | COc1ccc(C(Oc2ccc([N+](=O)[O-])cc2)c2ccccn2)cc1 (centres unmarked) [Compound 25, 2-((4-methoxyphenyl)(4-nitrophenoxy)methyl)pyridine] | > 50 | > 50 |  |  | 
17 | COc1ccc(C(Oc2ccc(N(C)C)cc2)c2ccccn2)cc1 (centres unmarked) [Compound 26, 4-((4-methoxyphenyl)(pyridin-2-yl)methoxy)-N,N-dimethylaniline] | > 50 | > 50 |  |  | 
18 | COc1ccc(C(Oc2ccc(C(C)=O)cc2)c2ccccn2)cc1 (centres unmarked) [Compound 27, 1-(4-((4-methoxyphenyl)(pyridin-2-yl)methoxy)phenyl)ethanone] | > 50 | > 50 |  |  | 

Now from value to compound, other results behind:

Row | IC50 (human CRC HCT116 cells; Homo sapiens, HCT-116, 48 h) [µM] | IC50 (human CRC HT-29 cells [1]; Homo sapiens, HT-29, 48 h) [µM] | IC50 (human CRC HCT116 cells; 48 h) [µM] | IC50 (human CRC HT-29 cells [1]; 48 h) [µM] | Structure (SMILES) | further results
19 |  |  | > 50 | 25.2 ± 1.28 | COc1ccc(C(=Cc2ccc(C(C)(C)C)cc2)c2ccccn2)cc1 [Compound 10b, 2-(2-(4-(tert-butyl)phenyl)-1-(4-methoxyphenyl)vinyl)pyridine] | HT-29 DNA Fragmentation (Fold) (human CRC HT-29 cells [2]; 24 h): 1.24 Fold; HT-29 DNA Fragmentation (Fold) (human CRC HT-29 cells [2]; 48 h): 0.84 Fold; Cell viability (%) HT-29 (human CRC HT-29 cells [1]; 48 h): < 50%; cleaved PARP expression (PARP; HT-29, treated at IC50, 24 h): never been expressed; cleaved PARP expression (PARP; HT-29, treated at IC50, 48 h): never been expressed
20 | > 50 | > 50 |  |  | COc1ccc(C(=Cc2ccc(O)cc2)c2ccccn2)cc1 [Compound 11b, 4-(2-(4-methoxyphenyl)-2-(pyridin-2-yl)vinyl)phenol] | 
21 |  |  | > 50 | > 50 | COc1ccc(C(=Cc2ccc(C(F)(F)F)cc2)c2ccccn2)cc1 [Compound 12b, 2-(1-(4-methoxyphenyl)-2-(4-(trifluoromethyl)phenyl)vinyl)pyridine] | 
22 |  |  | 36.6 ± 2.94 | 24 ± 2.65 | COc1ccc(C(=Cc2ccc(Br)cc2)c2ccccn2)cc1 [Compound 13a, 2-(2-(4-bromophenyl)-1-(4-methoxyphenyl)vinyl)pyridine] | Cell viability (%) HCT116 (human CRC HCT116 cells; 50 µM, 48 h, MTT screening): < 50%; viability at 50 µM (human CRC HT-29 cells [1]; Homo sapiens, 48 h): < 50%
23 | < 35 |  | 26.1 ± 2.08 | > 50 | COc1ccc(C(=Cc2ccc(Br)cc2)c2ccccn2)cc1 [Compound 13b, 2-(2-(4-bromophenyl)-1-(4-methoxyphenyl)vinyl)pyridine] | viability at 50 µM (human CRC HCT116 cells; [3]): < 50%
24 | 42.7 ± 2.24 | < 30 |  | 28.5 ± 1.82 | COc1ccc(C(=Cc2ccc(Cl)cc2)c2ccccn2)cc1 [Compound 14a, 2-(2-(4-chlorophenyl)-1-(4-methoxyphenyl)vinyl)pyridine] | viability at 50 µM (human CRC HCT116 cells; [3]): < 50%; viability at 50 µM (human CRC HT-29 cells [1]; Homo sapiens, 48 h): < 50%
25 |  |  | > 50 | > 50 | COc1ccc(C(=Cc2ccc(Cl)cc2)c2ccccn2)cc1 [Compound 14b, 2-(2-(4-chlorophenyl)-1-(4-methoxyphenyl)vinyl)pyridine] | 
26 | > 50 | 43.43 ± 0.31 |  |  | COc1ccc(C(=Cc2ccc(F)cc2)c2ccccn2)cc1 [Compound 15a, 2-(2-(4-fluorophenyl)-1-(4-methoxyphenyl)vinyl)pyridine] | viability at 50 µM (human CRC HT-29 cells [1]; Homo sapiens, 48 h): < 50%
27 |  |  | > 50 | > 50 | COc1ccc(C(=Cc2ccc(F)cc2)c2ccccn2)cc1 [Compound 15b, 2-(2-(4-fluorophenyl)-1-(4-methoxyphenyl)vinyl)pyridine] | 
